According to patent US5789654A, “Transgenic animals deficient in endogenous β3 -adrenergic receptor and uses thereof” (Beth Israel Hospital Association, priority 1996, dated 1998):
Where two headings read alike, the source gives them in different places.

Assays:
human β3 -AR = biological target: T1, human β3 -AR (Homo sapiens, UniProt P13945); assay: O2 consumption in knockout mice expressing the reconstituted human β3 -AR; type: in vivo, mouse; conditions: 10 mg/ml
T1 construct: reconstituted with an 80 kb β3 -AR human genomic clone; expressed in transfected cells; host or cells: transgenic beta-3-AR-deficient mice (human genomic P1 insert injected into zygotes; mRNA detected in brown adipose tissue only)
Method: The effects on oxygen consumption were then assessed according to standard methods (e.g., those described herein).
(§1) Oxygen consumption was measured as described by Lowell et al. (supra) in twelve-week-old control, β3 -AR-deficient male mice, and β3 -AR-deficient knockout mice expressing the human β3-AR gene.

β3 -AR [1] = biological target: T2, β3 -AR (Mus musculus, UniProt P25962); assay: Effect of a single dose on food intake; type: in vivo; design: endogenous in cells; host or cells: whole mice (control +/+ and beta-3-AR-deficient -/-, FVB background); conditions: control mice; 1 mg/kg intraperitoneal; twenty-four hours
Method: (§2) FIG. 9 is a graph showing the effect of a single dose of CL 316,243 on food intake. […] The mice were housed individually during the test period, and results for each group are the mean of five animals (±S.E.). Food intake was determined during the twenty-four hours following CL 316,243 or saline treatment.
(§3) To acclimate the mice to injections and handling, saline was injected daily for three days preceding day zero of the study. The mice were housed individually during the study. Food was weighed before injection and twenty-four hours after, and the differences were assumed to represent grams of food eaten per day. The cages were inspected for food spillage, and none was noted.

β3 -AR [2] = biological target: T2, β3 -AR; assay: Acute effect on plasma insulin and blood glucose; type: in vivo; design: plasma membranes of isolated white adipocytes (epididymal) or interscapular brown adipose tissue; -/- mice are null control; conditions: control mice; 1 mg/kg intraperitoneal, fifteen minutes
Source text: (§4) FIGS. 8A-B are graphs showing the acute effect of saline or CL 316,243 on plasma insulin and blood glucose concentrations. […] Blood was obtained from the tail fifteen minutes after […]. The results are expressed as the mean ±S.E. (+/+=seven mice, -/-=four mice).
(§5) Whole blood was collected and analyzed for blood glucose levels (One Touch Blood Glucose Meter, Lifescan, Inc., Milpitas, Calif.). Serum was then isolated and assayed for FFAs (NEFA C kit, Wako Pure Chemical Industries, Ltd.), glycerol (GPO-Trinder Kit, procedure 337, Sigma), and insulin (rat insulin kit, Linco Research Inc., St. Louis, Mo.) according to the manufacturers' protocols.

β3 -AR [3] = assay: Effect of a single dose on food intake; type: in vivo, mouse; conditions: β3 -AR-deficient mice; 1 mg/kg intraperitoneal; twenty-four hours
Method: as §2, §3

β3 -AR [4] = type: biochemical, mouse; conditions: for reduction of stimulatory effect on adenylate cyclase activity: β3 -AR-deficient vs wild type
Method: (§6) To determine the functional consequences of β3 -AR deficiency on β-adrenergic signalling, the effects of β-adrenergic agonists on adenylate cyclase activity and lipolysis were assessed. For determination of adenylate cyclase activity (FIG. 5), plasma membranes were obtained from isolated white adipocytes or interscapular brown adipose tissue, and then were incubated in the presence of various agonists. […] To assess lipolysis (FIGS. 6A and 6B), white adipocytes were isolated from epididymal fat pads, and then incubated in the presence of various agonists. Rates of lipolysis were determined by quantitating the release of glycerol.

[5] = system: isolated white adipocytes; assay: Lipolysis (glycerol release) in isolated white adipocytes; type: cell-based, mouse; conditions: +ADA
Method: as §6
For analysis of lipolysis, isolated white adipocytes (100 μl of a 10% isolate fat cell suspension) were incubated in a final volume of 500 μl, and glycerol release was measured over a fifteen minute period. […] Except where noted, the incubation medium consisted of a Krebs-Ringer-Hepes (30 mM) buffer (pH 7.4) supplemented with 2.5% bovine serum albumin (fraction V), 10 μM PIA (N^6 -[R-(-)-1-methyl-2-phenyl]adenosine), 1 unit/ml adenosine deaminase, and varying concentrations of agonists.

β3 -AR [6] = biological target: T2, β3 -AR; type: biochemical; design: plasma membranes of isolated white adipocytes (epididymal) or interscapular brown adipose tissue; -/- mice are null control; conditions: wild type mice; maximally effective / effective doses
Method: as §6

β3 -AR [7] = type: in vivo, mouse; conditions: for FFA: serum, fifteen minutes after injection
Method: (§7) To determine the effect of β3 -AR deficiency on β-adrenergicsignaling in vivo, various adrenergic agonists were administered to control and knockout mice, and the effects on serum levels of FFAs, glycerol, and thermogenesis were assessed.
as §5

β3 -AR [8] = biological target: T2, β3 -AR; type: in vivo; design: endogenous in cells; host or cells: whole mice (control +/+ and beta-3-AR-deficient -/-, FVB background)
Method: as §7, §5

β3 -AR [9] = biological target: T2, β3 -AR; type: in vivo; design: plasma membranes of isolated white adipocytes (epididymal) or interscapular brown adipose tissue; -/- mice are null control; conditions: control mice; 1.0 mg/kg subcutaneously
Method: (§8) Mice that received norepinephrine were anesthetized with pentobarbital for the study.
as §1

β3 -AR [10] = type: in vivo, mouse; conditions: for stimulated oxygen consumption: β3 -AR-deficient male mice vs control
Method: as §8, §1

β3 -AR [11] = assay: Acute effect on plasma insulin and blood glucose; type: in vivo, mouse; conditions: β3 -AR-deficient mice; 1 mg/kg intraperitoneal
Source text: as §4, §5

T2 sequence (P25962 whole entry): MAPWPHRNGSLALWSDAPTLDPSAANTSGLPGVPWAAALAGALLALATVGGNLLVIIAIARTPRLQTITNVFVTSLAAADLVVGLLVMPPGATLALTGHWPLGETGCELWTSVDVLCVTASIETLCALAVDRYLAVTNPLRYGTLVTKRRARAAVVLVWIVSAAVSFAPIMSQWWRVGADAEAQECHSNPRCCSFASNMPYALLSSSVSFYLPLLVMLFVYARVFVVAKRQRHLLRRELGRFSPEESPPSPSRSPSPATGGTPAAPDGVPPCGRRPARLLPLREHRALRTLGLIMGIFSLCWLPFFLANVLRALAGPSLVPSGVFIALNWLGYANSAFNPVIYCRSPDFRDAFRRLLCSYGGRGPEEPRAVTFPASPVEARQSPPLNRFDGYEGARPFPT
T1 sequence (P13945 whole entry): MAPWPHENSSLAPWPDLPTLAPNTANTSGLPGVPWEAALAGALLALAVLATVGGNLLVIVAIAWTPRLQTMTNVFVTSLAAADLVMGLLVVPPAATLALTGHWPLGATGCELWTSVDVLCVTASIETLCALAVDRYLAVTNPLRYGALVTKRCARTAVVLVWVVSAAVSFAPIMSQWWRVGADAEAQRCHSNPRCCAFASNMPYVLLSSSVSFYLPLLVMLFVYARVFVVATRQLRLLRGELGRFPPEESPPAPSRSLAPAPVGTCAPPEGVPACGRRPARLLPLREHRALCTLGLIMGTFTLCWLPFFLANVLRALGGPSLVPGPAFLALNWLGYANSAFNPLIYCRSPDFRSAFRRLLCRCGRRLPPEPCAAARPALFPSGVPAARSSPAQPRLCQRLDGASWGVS

With `CC(C)(C)NCC(O)COc1cccc2[nH]c(=O)[nH]c12` (stereo not shown) [CGP-12177] the “increase in oxygen consumption” value (human β3 -AR) was “twenty”.
For `C[C@H](Cc1ccc2c(c1)OC(C(=O)O)(C(=O)O)O2)NC[C@H](O)c1cccc(Cl)c1` [CL 316,243], the “reduction in food intake” value (β3 -AR [1]) was “forty-five”, the “increase in plasma insulin levels” value (β3 -AR [2]) was 140 fold and the “reduction in blood glucose” value (β3 -AR [2]) was “fifty-six”. For the same compound, the “effect on food intake” value (β3 -AR [3]) was “completely ineffective”, the “adenylate cyclase activity in membranes” value (β3 -AR [4]; β3 -AR-deficient mice, maximally effective doses) was “absent” and the lipolysis in adipocytes ([5]; wild type mice, +PIA) was “stimulated”. The lipolysis in adipocytes ([5]; β3 -AR-deficient mice, +PIA) was “absent”, the “adenylate cyclase activity in membranes” value (β3 -AR [6]) was “stimulated” and the FFA (β3 -AR [7]; female -/-) was 630 ± 140 µM. The “increase in serum FFA levels” value (β3 -AR [7]; β3 -AR-deficient mice) was “totally absent”, the “increase in serum FFA levels” value (β3 -AR [8]; control mice) was 3.2 fold and the FFA (β3 -AR [8]; serum, fifteen minutes after injection, female +/+) was 2,260 ± 350 μM. The “increase in oxygen consumption” value (β3 -AR [9]) was 2 fold, the “increase in oxygen consumption” value (β3 -AR [10]; β3 -AR-deficient mice, 1.0 mg/kg subcutaneously) was “totally absent” and the “effect on blood glucose” value (β3 -AR [11]) was “completely without effect”. The “effect on plasma insulin levels” value (β3 -AR [11]) was “completely without effect”.
`C[C@H](Cc1ccccc1)Nc1ncnc2c1ncn2[C@@H]1O[C@H](CO)[C@@H](O)[C@H]1O` [PIA, N^6-[R-(-)-1-methyl-2-phenyl]adenosine] was tested, and the “inhibition of isoproterenol-stimulated lipolysis” value ([5]; control adipocytes, with vs without PIA (10 μM)) was “only minimally inhibited”.
With “Adrenocorticotropic hormone (SYSMEHFRWGKPVGKKRRPVKVYPNGAEDESAEAFPLEF; Corticotropin; UniProt P01189 138-176, looked up) [ACTH, hormone that stimulates lipolysis via a seven-transmembrane receptor Gαs -adenylate cyclase-coupled mechanism]” the lipolysis in adipocytes ([5]; wild type mice, +PIA) was “increase lipolysis” and the lipolysis in adipocytes ([5]; β3 -AR-deficient mice, +PIA) was “increase lipolysis”.
`C=C[C@@]1(C)CC(=O)[C@]2(O)[C@@]3(C)[C@@H](O)CCC(C)(C)[C@@H]3[C@H](O)[C@H](OC(C)=O)[C@@]2(C)O1` [forskolin] was tested, and the lipolysis in adipocytes ([5]; wild type mice, +PIA) was “stimulate lipolysis” and the lipolysis in adipocytes ([5]; β3 -AR-deficient mice, +PIA) was “stimulate lipolysis”.
`NC[C@H](O)c1ccc(O)c(O)c1` [norepinephrine] was tested, and the stimulated oxygen consumption (β3 -AR [10]; 0.6 mg/kg subcutaneously, anesthetized with pentobarbital) was “not significantly reduced”.
For `CC(C)NCC(O)c1ccc(O)c(O)c1` (stereo not shown) [isoproterenol], the “reduction of stimulatory effect on adenylate cyclase activity” value (β3 -AR [4]; membranes derived from brown adipose tissue) was “seventy”, the “reduction of stimulatory effect on adenylate cyclase activity” value (β3 -AR [4]; membranes derived from isolated white adipocytes) was “eighty” and the stimulation of lipolysis ([5]; wild type adipocytes, maximally effective concentration, +PIA) was “about five”. The “reduction of stimulated lipolysis” value ([5]; β3 -AR-deficient adipocytes, -PIA) was “about thirty-three”, the lipolysis in adipocytes ([5]; β3 -AR-deficient mice, +PIA) was “absent” and the Glycerol (β3 -AR [7]; mouse, in vivo) was 239 ± 15 µM. The FFA (β3 -AR [7]; male -/-) was 1.510 ± 20 µM and the stimulated oxygen consumption (β3 -AR [10]; 0.3 mg/kg subcutaneously, awake) was “not significantly reduced”.
